Columns and labels:
c-Kit = c-Kit (Homo sapiens, UniProt P10721); experiment: c-Kit biochemical assay (per US 2007/0032519)
Summary of the method: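 Biochemical kinase inhibition run per US 2007/0032519; values reported as binned IC50 ranges (0.0001–1 μM, 1–10 μM, 10–200 μM).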

[1] = target: T1, BA/F3-FLT3-ITD + F691L cells (Homo sapiens, UniProt P36888, F691L, cells depend on it, form not given); experiment: BA/F3-FLT3-ITD + F691L cell proliferation assay (CellTiter-Glo); assay type: cell-based, murine; conditions: BaF3 FLT3 ITD/F691L cells; read-out: Cell Activity (IC50 μM) BaF3_FLT3_ITD/F691L
T1 sequence (P36888 1-993 F691L): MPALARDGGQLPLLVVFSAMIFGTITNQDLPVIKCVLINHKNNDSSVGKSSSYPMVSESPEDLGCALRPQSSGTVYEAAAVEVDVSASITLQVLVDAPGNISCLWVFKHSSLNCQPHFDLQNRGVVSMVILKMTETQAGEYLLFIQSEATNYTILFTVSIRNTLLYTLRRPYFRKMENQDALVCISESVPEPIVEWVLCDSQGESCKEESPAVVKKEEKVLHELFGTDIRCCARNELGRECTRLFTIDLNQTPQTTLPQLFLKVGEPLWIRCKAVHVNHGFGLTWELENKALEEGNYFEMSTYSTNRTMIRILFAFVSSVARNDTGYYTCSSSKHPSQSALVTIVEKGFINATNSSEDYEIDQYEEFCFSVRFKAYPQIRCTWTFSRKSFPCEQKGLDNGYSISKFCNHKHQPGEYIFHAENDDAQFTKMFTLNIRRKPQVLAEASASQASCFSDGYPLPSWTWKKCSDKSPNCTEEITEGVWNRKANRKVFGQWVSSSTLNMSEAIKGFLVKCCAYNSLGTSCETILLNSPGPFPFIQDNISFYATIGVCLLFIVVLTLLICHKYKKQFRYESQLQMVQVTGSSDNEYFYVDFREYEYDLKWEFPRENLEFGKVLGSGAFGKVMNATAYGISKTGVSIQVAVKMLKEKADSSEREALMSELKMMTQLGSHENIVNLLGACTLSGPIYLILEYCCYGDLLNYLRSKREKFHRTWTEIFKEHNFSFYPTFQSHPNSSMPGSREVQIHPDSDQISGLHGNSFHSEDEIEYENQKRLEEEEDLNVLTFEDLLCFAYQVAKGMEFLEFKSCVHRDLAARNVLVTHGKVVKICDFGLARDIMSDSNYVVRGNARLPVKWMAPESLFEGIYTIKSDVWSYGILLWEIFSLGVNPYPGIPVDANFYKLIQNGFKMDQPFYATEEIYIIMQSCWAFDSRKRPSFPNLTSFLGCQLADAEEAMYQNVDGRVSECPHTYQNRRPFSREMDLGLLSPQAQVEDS
Summary of the method: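 Three-day growth assay, IC50 from CellTiter-Glo ATP luminescence vs concentration. Compounds at 10 to 0.0046 μM (1:3 steps, final DMSO 0.2%) on 1×10^4 cells/well. Cells are IL-3-independent BA/F3 lines engineered to express full-length FLT3-ITD with the D835Y or the F691L mutation.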

Sequence of c-Kit (P10721 26-976): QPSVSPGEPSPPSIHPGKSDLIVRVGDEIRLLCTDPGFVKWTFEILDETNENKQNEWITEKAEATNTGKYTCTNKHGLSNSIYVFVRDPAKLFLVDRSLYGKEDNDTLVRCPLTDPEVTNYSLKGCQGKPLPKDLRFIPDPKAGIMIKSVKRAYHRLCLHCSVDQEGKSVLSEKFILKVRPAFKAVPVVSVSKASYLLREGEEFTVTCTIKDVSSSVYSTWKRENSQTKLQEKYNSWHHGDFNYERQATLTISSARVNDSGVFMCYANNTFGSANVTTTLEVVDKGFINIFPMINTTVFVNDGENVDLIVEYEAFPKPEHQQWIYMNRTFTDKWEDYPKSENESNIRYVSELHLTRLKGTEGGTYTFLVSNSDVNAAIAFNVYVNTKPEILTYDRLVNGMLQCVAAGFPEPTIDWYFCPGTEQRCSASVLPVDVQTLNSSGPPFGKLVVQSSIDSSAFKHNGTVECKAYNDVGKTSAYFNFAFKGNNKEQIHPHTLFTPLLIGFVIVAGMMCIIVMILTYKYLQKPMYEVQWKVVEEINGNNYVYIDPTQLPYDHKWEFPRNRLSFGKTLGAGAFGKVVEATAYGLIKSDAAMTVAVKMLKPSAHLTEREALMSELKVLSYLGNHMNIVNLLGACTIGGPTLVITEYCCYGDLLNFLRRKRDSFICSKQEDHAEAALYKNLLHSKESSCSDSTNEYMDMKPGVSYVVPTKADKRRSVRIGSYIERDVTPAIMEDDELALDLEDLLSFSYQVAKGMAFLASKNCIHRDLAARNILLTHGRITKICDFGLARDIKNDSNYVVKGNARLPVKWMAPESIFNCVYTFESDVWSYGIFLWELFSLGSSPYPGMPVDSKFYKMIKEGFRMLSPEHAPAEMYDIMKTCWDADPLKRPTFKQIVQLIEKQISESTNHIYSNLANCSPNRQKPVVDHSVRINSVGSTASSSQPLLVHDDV

Row | SMILES | IC50 (c-Kit) [µM] | GI50 [1] [µM]
1 | CC(C)S(=O)(=O)Nc1cccc(-c2cnc3[nH]cc(-c4ccc5ncn(C(C)(C)C)c5c4)c3n2)c1 [P-232, N-[3-[7-(3-tert-butylbenzimidazol-5-yl)-5H-pyrrolo[2,3-b]pyrazin-2-yl]phenyl]propane-2-sulfonamide] |  | 0.0001 to 1
2 | COc1ncc(-c2cnc3[nH]cc(-c4ccc5ncn(C(C)(C)C)c5c4)c3n2)cn1 [P-263, 7-(3-tert-butylbenzimidazol-5-yl)-2-(2-methoxypyrimidin-5-yl)-5H-pyrrolo[2,3-b]pyrazine] |  | 0.0001 to 1
3 | O=S1(=O)CCCCN1c1cccc(-c2cnc3[nH]cc(-c4ccc5ncn(C6CCCNC6)c5c4)c3n2)c1 (stereo not drawn) [P-253, 2-[3-[7-[3-(3-piperidyl)benzimidazol-5-yl]-5H-pyrrolo[2,3-b]pyrazin-2-yl]phenyl]thiazinane 1,1-dioxide] |  | 0.0001 to 1
4 | C#Cc1cnc2[nH]cc(-c3ccc4ncn(C5CCCNC5)c4c3)c2n1 (stereo not drawn) [P-270, 2-ethynyl-7-[3-(3-piperidyl)benzimidazol-5-yl]-5H-pyrrolo[2,3-b]pyrazine] |  | 0.0001 to 1
5 | c1cc(-c2cnc3[nH]cc(-c4ccc5ncn(C6CCCNC6)c5c4)c3c2)cc(N2CCOCC2)n1 (stereo not drawn) [P-223, 4-[4-[3-[3-(3-piperidyl)benzimidazol-5-yl]-1H-pyrrolo[2,3-b]pyridin-5-yl]-2-pyridyl]morpholine] |  | 0.0001 to 1
6 | O=S1(=O)CCCN1c1cccc(-c2cnc3[nH]cc(-c4ccc5ncn(C6CCCNC6)c5c4)c3n2)c1 (stereo not drawn) [P-273, 2-[3-[7-[3-(3-piperidyl)benzimidazol-5-yl]-5H-pyrrolo[2,3-b]pyrazin-2-yl]phenyl]-1,2-thiazolidine 1,1-dioxide] |  | 0.0001 to 1
7 | COc1cc(-c2cnc3[nH]cc(-c4ccc5ncn(C6CCCN(C)C6)c5c4)c3n2)ccn1 (stereo not drawn) [P-271, 2-(2-methoxy-4-pyridyl)-7-[3-(1-methyl-3-piperidyl)benzimidazol-5-yl]-5H-pyrrolo[2,3-b]pyrazine] |  | 0.0001 to 1
8 | CC(C)(C)n1cnc2ccc(-c3c[nH]c4ncc(-c5cnn(C(F)F)c5)nc34)cc21 [P-255, 7-(3-tert-butylbenzimidazol-5-yl)-2-[1-(difluoromethyl)pyrazol-4-yl]-5H-pyrrolo[2,3-b]pyrazine] |  | 0.0001 to 1
9 | CC(C)(C)n1cnc2ccc(-c3c[nH]c4ncc(-c5cccc(NS(C)(=O)=O)c5)nc34)cc21 [P-097, N-[3-[7-(3-tert-butylbenzimidazol-5-yl)-5H-pyrrolo[2,3-b]pyrazin-2-yl]phenyl]methanesulfonamide] | 0.0001 to 1 | 0.0001 to 1
10 | FC(F)(F)Oc1cccc(-c2cnc3[nH]cc(-c4ccc5ncn(C6CCCNC6)c5c4)c3n2)c1 (stereo not drawn) [P-193, 7-[3-(3-piperidyl)benzimidazol-5-yl]-2-[3-(trifluoromethoxy)phenyl]-5H-pyrrolo[2,3-b]pyrazine] |  | 0.0001 to 1
11 | COc1cc(-c2cnc3[nH]cc(-c4ccc5ncn(C(C)(C)C)c5c4)c3n2)ccn1 [P-099, 7-(3-tert-butylbenzimidazol-5-yl)-2-(2-methoxy-4-pyridyl)-5H-pyrrolo[2,3-b]pyrazine] | 1 to 10 | 0.0001 to 1
12 | COC(=O)N1CCCC(n2cnc3ccc(-c4c[nH]c5ncc(-c6ccnc(OC)c6)nc45)cc32)C1 (stereo not drawn) [P-261, methyl 3-(6-(2-(2-methoxypyridin-4-yl)-5H-pyrrolo[2,3-b]pyrazin-7-yl)-1H-benzo[d]imidazol-1-yl)piperidine-1-carboxylate] |  | 0.0001 to 1

The next lines start with the values.

Row | IC50 (c-Kit) [µM] | GI50 [1] [µM] | SMILES
13 | 10 to 200 | 0.0001 to 1 | COc1cnc2[nH]cc(-c3ccc4ncn(-c5cccc(C#N)c5)c4c3)c2c1 [P-135, 3-[6-(5-methoxy-1H-pyrrolo[2,3-b]pyridin-3-yl)benzimidazol-1-yl]benzonitrile]
14 | 10 to 200 | 0.0001 to 1 | COc1cnc2[nH]cc(-c3ccc4ncn(-c5cccc(F)c5)c4c3)c2c1 [P-128, 1-(3-fluorophenyl)-6-(5-methoxy-1H-pyrrolo[2,3-b]pyridin-3-yl)benzimidazole]
15 | 1 to 10 | 0.0001 to 1 | CN(c1cccc(-c2cnc3[nH]cc(-c4ccc5ncn(C)c5c4)c3c2)c1)S(C)(=O)=O [P-120, N-methyl-N-[3-[3-(3-methylbenzimidazol-5-yl)-1H-pyrrolo[2,3-b]pyridin-5-yl]phenyl]methanesulfonamide]
16 | 10 to 200 | 0.0001 to 1 | COc1cnc2[nH]cc(-c3ccc4ncn(-c5ccc(F)c(C)c5)c4c3)c2c1 [P-129, 1-(4-fluoro-3-methyl-phenyl)-6-(5-methoxy-1H-pyrrolo[2,3-b]pyridin-3-yl)benzimidazole]
17 |  | 0.0001 to 1 | COc1cc(C#Cc2cnc3[nH]cc(-c4ccc5ncn(C6CCCNC6)c5c4)c3c2)ccn1 (stereo not drawn) [P-241, 5-[2-(2-methoxy-4-pyridyl)ethynyl]-3-[3-(3-piperidyl)benzimidazol-5-yl]-1H-pyrrolo[2,3-b]pyridine]
18 |  | 0.0001 to 1 | O=C(Nc1cccc(F)c1)c1cnc2[nH]cc(-c3ccc4ncn(C5CCCNC5)c4c3)c2c1 (stereo not drawn) [P-178, N-(3-fluorophenyl)-3-[3-(3-piperidyl)benzimidazol-5-yl]-1H-pyrrolo[2,3-b]pyridine-5-carboxamide]
19 |  | 0.0001 to 1 | COc1cnc2[nH]cc(-c3ccc4ncn(-c5ccc(F)cc5)c4c3)c2c1 [P-103, 1-(4-fluorophenyl)-6-(5-methoxy-1H-pyrrolo[2,3-b]pyridin-3-yl)benzimidazole]
20 |  | 0.0001 to 1 | C#Cc1cnc2[nH]cc(-c3ccc4ncn(C(C)(C)C)c4c3)c2c1 [P-244, 1-tert-butyl-6-(5-ethynyl-1H-pyrrolo[2,3-b]pyridin-3-yl)benzimidazole]
21 |  | 0.0001 to 1 | COc1cc(-c2cnc3[nH]cc(-c4ccc5ncn(C(C)(C)CO)c5c4)c3n2)ccn1 [P-186, 2-[6-[2-(2-methoxy-4-pyridyl)-5H-pyrrolo[2,3-b]pyrazin-7-yl]benzimidazol-1-yl]-2-methyl-propan-1-ol]
22 |  | 1 to 10 | CC(C)(C)n1cnc2ccc(-c3c[nH]c4ncc(C#Cc5cccc(C#N)c5)cc34)cc21 [P-242, 3-[2-[3-(3-tert-butylbenzimidazol-5-yl)-1H-pyrrolo[2,3-b]pyridin-5-yl]ethynyl]benzonitrile]
23 |  | 0.0001 to 1 | COc1cc(-c2cnc3[nH]cc(-c4ccc5ncn(C(C)C)c5c4)c3n2)ccn1 [P-113, 7-(3-isopropylbenzimidazol-5-yl)-2-(2-methoxy-4-pyridyl)-5H-pyrrolo[2,3-b]pyrazine]
24 |  | 0.0001 to 1 | COc1cc(C(=O)Nc2cnc3[nH]cc(-c4ccc5ncn(C(C)(C)C)c5c4)c3c2)ccn1 [P-245, N-[3-(3-tert-butylbenzimidazol-5-yl)-1H-pyrrolo[2,3-b]pyridin-5-yl]-2-methoxy-pyridine-4-carboxamide]
